Laboratory results published in patent US10881656B2, “HIF inhibitors and use thereof” (The General Hospital Corporation, priority 2008, dated 2021).

Experiments:
[1] = tested on: NFkB; experiment: TransAM NFkB ELISA; format: cell-based, human; details: 786-O cells, 5uM, 24 hours
Protocol: Experiments were performed in triplicate. Error bars represent Standard Error of the Mean (SEM).

[2] = tested on: HIF-2a (HRE-luciferase, 7H4 cells); experiment: HRE-luciferase reporter assay in 786-O derived 7H4 cells; format: cell-based, human; details: 786-O cells, 24 hours
Protocol: The screen for small molecule inhibitors was performed in the Institute for Chemical and Cellular biology, Harvard Medical School. 7SV or 7H4 cells were plated onto 384-well plates. The next day compounds were added robotically to the medium, to a final concentration of approximately 10 μM. 24 hours later, media was aspirated and Passive Lysis Buffer (Promega) and Luciferase Assay Reagent II (Promega) were added. Luciferase activity was measured with an Analyst plate reader (LJL Biosystems). All experiments were performed in duplicate and the identity of lead compounds was confirmed by mass spectroscopy
Luciferase assays were performed using the Promega's Dual-luciferase Assay Reporter System (Promega, E1910) according to the manufacturer's instructions. Counts obtained from transient transfections were normalized for co-transfected Renilla luciferase. Stable clones were normalized to medium only treated wells.
Functionally validated HRE and control SV40 luciferase reporter constructs were stably introduced into VHL-deficient 786-O cells to generate 7H4 and 7SV lines, respectively (see FIG. 8A). These lines were used to screen five commercial small molecule libraries (NCI Diversity Set, Chembridge, Maybridge, CEREP and Peakdale) and the ICCB Diversity-Oriented Synthesis (DOS) Diversity Set 2 (DDS2) and serine-derived peptidomimetic (SDP1) collections, totaling 58,000 compounds.
786-O cells were untreated (M, for medium only), mock-treated (D, for DMSO) or treated with compounds for two days before assaying for normalized luciferase activity. The resulting dose response curves are shown along with the compound structures in FIGS. 1A-1H).
To validate the connectivity map-derived prediction that PGJ2 is involved in HIF signaling, the inventors treated HRE-luciferase expressing 786-O cells (7H4) and SV40-luciferase expressing control cells (7SV) with increasing doses of PGJ2.

[3] = tested on: HIF; details: published; cited from earlier work
[4] = tested on: iron (Fe-(EDHB)3 complex); experiment: In vitro iron competition assay; details: 0-200 micromolars, absorbance at 500 nm
Protocol: This assay was performed similarly to that described previously (Wang et al., 2002). Briefly, displacement of iron from ethyl-3,4-dihydroxybenzoate (EDHB) complex was measured as a decrease in absorbance at 500 nm. Ferric iron, prepared as a 5 mM stock solution of FeC13 in 100 mM sodium citrate, was diluted to 25 μM in the presence of 750 μM EDHB. 1 ml aliquots of this solution were then mixed with 0, 25, 50, 100 or 200 micromolars of compounds 40, 41, 76, and 77 as well as EDTA and DFO for controls. […] The self absorbance of compound 41 in a matched solution lacking Fe-(EDHB)3 was subtracted from the A500 value obtained in the presence of the Fe-(EDHB)3 complex.
The inventors next directly tested whether the compounds bind iron by performing a competition assay in which the displacement of iron from ethyl-3,4-dihydroxybenzoate (EDHB), a weakly chelating ester, was measured as a decrease in absorbance at 500 nm. […] In addition, the inventors utilized the Connectivity Map to look for similarities between the induced gene expression signatures of low and high dose DFO and compound treated cells (Lamb et al., 2006). Using this bioinformatic approach, the inventors discovered no significant similarity between the gene expression profile of the compounds and low (chelating) DFO dose, while there was a negative correlation between compound effect and high (HIF stabilizing) DFO dose (see FIG. 13).

[5] = tested on: HIF-2a 5′-UTR Iron-Responsive Element (IRE); experiment: Luciferase reporters with HIF-2a 5′-UTR / IRE in 786-O cells; format: cell-based, human; details: 10 μM, normoxia and hypoxia
[6] = target: T1, IRP2 binding to Ferritin-L IRE (Homo sapiens, UniProt P48200); experiment: Electrophoretic mobility shift assay, Ferritin L IRE probe; details: 786-O lysates, EMSA
T1 construct: when expressed in endogenous levels; endogenous in cells; host or cells: 786-O
Protocol: EMSAs were performed as described previously (Fillebeen et al., 2003). Briefly, 50 μg lysate from 786-O cells treated with medium only, DMSO, or compounds were incubated with 25,000 cpm wild-type or mutant radiolabeled HIF-2a IRE probe for 20 minutes at room temperature before loading onto non-denaturing acrylamide gels. Supershifts were performed identically, save that 0.2 μg control, IRP1 or IRP2 antibodies were also added. Total protein content was estimated by Bradford Assay (BioRad, 500-0006), and even loading for all experiments was confirmed by Western blot for B-Actin.
Inventors discovered that compound 76 increased the residual amount of IRP1 bound to the HIF-2a IRE in hypoxia, although not to the same extent as that observed in normoxic cells. […] Lastly, to further investigate the involvement of IRP2 in HIF-2a IRE, the inventors compared side by side IRP2 binding to HIF-2a and Ferritin-L IRE in 786-O cells, in conditions of normoxia or hypoxia and after treatment with compound 76 or DFO (FIG. 7E). While IRP2 binding was clearly detected on Ferritin IRE, the inventors were not able to detect measurable IRP2 binding on HIF-2a IRE.

T1 sequence (P48200 whole entry): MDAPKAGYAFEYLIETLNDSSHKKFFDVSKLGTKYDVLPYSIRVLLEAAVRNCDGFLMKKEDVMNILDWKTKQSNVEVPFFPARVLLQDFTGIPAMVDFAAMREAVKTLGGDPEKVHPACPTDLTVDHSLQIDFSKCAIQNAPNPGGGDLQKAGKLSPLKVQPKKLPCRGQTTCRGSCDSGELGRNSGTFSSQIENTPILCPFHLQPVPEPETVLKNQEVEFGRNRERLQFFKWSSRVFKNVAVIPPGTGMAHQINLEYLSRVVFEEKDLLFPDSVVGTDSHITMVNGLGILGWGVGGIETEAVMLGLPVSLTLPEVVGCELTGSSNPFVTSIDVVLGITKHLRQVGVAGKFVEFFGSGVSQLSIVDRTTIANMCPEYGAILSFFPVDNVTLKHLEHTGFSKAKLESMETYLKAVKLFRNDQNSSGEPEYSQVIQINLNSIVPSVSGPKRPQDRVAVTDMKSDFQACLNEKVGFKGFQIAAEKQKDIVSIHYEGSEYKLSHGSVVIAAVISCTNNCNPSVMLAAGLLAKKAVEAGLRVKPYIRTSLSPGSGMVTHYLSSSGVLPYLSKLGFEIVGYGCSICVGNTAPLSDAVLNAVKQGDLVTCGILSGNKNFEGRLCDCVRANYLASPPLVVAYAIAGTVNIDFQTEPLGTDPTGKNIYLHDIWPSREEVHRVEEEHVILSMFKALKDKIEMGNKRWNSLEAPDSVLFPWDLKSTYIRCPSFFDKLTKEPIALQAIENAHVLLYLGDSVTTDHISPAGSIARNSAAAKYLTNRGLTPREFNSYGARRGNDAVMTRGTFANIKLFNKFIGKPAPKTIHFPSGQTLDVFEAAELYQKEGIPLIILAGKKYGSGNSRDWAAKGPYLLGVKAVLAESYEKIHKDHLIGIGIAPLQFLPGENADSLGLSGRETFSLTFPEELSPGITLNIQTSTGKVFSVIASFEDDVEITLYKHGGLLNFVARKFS

| Structure (SMILES) | Mechanism of HIF inhibtion [3] | Biological Activities [3] | also measured |
| --- | --- | --- | --- |
| Cc1ccc2nc(NCCN)c3ncc(C)n3c2c1 [BMS-345541, reference compound] | – | – | basal NFkB activity [1]: basal NFkB activity is suppressed; HRE-luciferase activity [2]: did not alter the HRE-luciferase activity |
| COc1ccc2cc3[n+](cc2c1OC)CCc1cc2c(cc1-3)OCO2 [Berberine] | HIF degradation | – | – |
| CC(C)(c1ccc(O)cc1)c1ccc(O)cc1 [Bisphenol] | HIF degradation | – | – |
| COc1cc2c(cc1O)CC[C@@H]1[C@@H]2CC[C@]2(C)[C@@H](O)CC[C@@H]12 [Compound 2-ME2] | Post-transcriptional | Inhibits HUVEC | – |
| CC(=O)N(O)CCCCCNC(=O)CCC(=O)N(O)CCCCCNC(=O)CCC(=O)N(O)CCCCCN [DFO, reference compound] | – | – | displacement of iron from EDHB complex (iron chelation) [4]: readily displaced iron from EDHB; HIF-2a IRE luciferase reporter activity [5]: repressed reporter activity and diminished the effect of hypoxia; binding of IRP2 to Ferritin-L IRE [6]: slightly enhanced |
| O=C(O)CN(CCN(CC(=O)O)CC(=O)O)CC(=O)O [EDTA, reference compound] | – | – | displacement of iron from EDHB complex (iron chelation) [4]: readily displaced iron from EDHB |
| COc1cc([C@@H]2c3cc4c(cc3[C@@H](Nc3ccc([N+](=O)[O-])cc3)[C@H]3COC(=O)[C@H]23)OCO4)cc(OC)c1O [GL331] | Protein levels | Inhibits HUVEC | – |
| CCC(C)SSc1ncc[nH]1 (stereo not drawn) [PX-12] | – | Tumor suppression | – |
| OCc1ccc(-c2nn(Cc3ccccc3)c3ccccc23)o1 [YC-1] | HIF protein levels | VEGF decrease/tumor | – |
